Assays:
hERG (KCNH2) [1] = molecular target: T1, hERG (KCNH2) (Homo sapiens, UniProt Q12809); assay: Inhibition of hERG expressed in HEK293 cells at 3 uM by manual patch clamp assay relative to control; type: toxicity, cell-based; details: HEK293 cells expressing hERG
[2] = Metabolic stability in mouse liver microsome assessed as half life at 1 uM measured up to 60 mins in presence of NADPH by LC-MS/MS analysis; type: ADME; details: liver microsomes
[3] = molecular target: T2, Protein cereblon/Interleukin-1 receptor-associated kinase 4 (Homo sapiens, UniProt Q9NWZ3+Q96SW2); assay: PROTAC activity at CRBN/IRAK4 in human THP-1 cells assessed as induction of IRAK4 degradation incubated for 24 hrs by HiBiT lytic reagent based analysis relative to control; type: cell-based
Target sequence in this assay (Q96SW2 whole entry, looked up): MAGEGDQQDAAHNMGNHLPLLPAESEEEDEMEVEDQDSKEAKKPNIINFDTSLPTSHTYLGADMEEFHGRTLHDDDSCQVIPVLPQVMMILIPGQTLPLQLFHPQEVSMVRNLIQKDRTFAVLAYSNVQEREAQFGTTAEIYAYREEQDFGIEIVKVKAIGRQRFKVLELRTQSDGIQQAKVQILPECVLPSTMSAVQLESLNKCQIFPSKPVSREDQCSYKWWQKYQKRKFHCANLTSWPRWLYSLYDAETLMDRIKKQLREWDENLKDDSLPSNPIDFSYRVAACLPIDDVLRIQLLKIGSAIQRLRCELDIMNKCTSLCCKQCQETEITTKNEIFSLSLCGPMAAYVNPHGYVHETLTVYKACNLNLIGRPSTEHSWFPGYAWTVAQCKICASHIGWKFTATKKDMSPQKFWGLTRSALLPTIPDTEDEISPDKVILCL
Target sequence in this assay (Q9NWZ3 whole entry, looked up): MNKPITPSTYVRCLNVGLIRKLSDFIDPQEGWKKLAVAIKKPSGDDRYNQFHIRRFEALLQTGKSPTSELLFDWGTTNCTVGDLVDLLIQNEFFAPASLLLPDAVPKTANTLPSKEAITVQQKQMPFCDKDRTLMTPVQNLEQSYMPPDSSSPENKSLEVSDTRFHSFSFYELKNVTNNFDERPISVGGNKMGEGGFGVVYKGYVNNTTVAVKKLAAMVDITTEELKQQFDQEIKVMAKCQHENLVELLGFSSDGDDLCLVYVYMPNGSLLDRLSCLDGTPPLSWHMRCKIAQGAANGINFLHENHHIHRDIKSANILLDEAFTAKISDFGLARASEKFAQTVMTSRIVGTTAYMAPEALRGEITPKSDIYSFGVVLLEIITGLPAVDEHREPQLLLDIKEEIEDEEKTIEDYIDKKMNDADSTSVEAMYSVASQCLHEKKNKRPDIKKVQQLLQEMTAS

[4] = Metabolic stability in dog liver microsome assessed as half life at 1 uM measured up to 60 mins in presence of NADPH by LC-MS/MS analysis; type: ADME, Canis lupus familiaris; details: liver microsomes
[5] = Metabolic stability in human liver microsome assessed as half life at 1 uM measured up to 60 mins in presence of NADPH by LC-MS/MS analysis; type: ADME; details: liver microsomes
[6] = molecular target: T2, Protein cereblon/Interleukin-1 receptor-associated kinase 4; assay: PROTAC activity at CRBN/IRAK4 in human THP-1 cells assessed as induction of IRAK4 degradation incubated for 24 hrs by HiBiT lytic reagent based analysis; type: cell-based
Target sequence in this assay (Q9NWZ3 whole entry): as the sequence (Q9NWZ3 whole entry, looked up) above
Target sequence in this assay (Q96SW2 whole entry): as the sequence (Q96SW2 whole entry, looked up) above

hERG (KCNH2) [7] = molecular target: T1, hERG (KCNH2); assay: Inhibition of hERG expressed in HEK293 cells at 1 uM by manual patch clamp assay relative to control; type: toxicity, cell-based; details: HEK293 cells expressing hERG
[8] = Metabolic stability in rat liver microsome assessed as half life at 1 uM measured up to 60 mins in presence of NADPH by LC-MS/MS analysis; type: ADME; details: liver microsomes
[9] = Metabolic stability in cynomolgus monkey liver microsome assessed as half life at 1 uM measured up to 60 mins in presence of NADPH by LC-MS/MS analysis; type: ADME, Macaca fascicularis; details: liver microsomes
[10] = molecular target: Voltage-gated inwardly rectifying potassium channel KCNH2 (Homo sapiens, UniProt Q12809); assay: Inhibition of hERG expressed in HEK293 cells by manual patch clamp assay; type: toxicity, cell-based; set-up: concentration or dose not given beside the values
Chain of Voltage-gated inwardly rectifying potassium channel KCNH2 (Q12809 whole entry): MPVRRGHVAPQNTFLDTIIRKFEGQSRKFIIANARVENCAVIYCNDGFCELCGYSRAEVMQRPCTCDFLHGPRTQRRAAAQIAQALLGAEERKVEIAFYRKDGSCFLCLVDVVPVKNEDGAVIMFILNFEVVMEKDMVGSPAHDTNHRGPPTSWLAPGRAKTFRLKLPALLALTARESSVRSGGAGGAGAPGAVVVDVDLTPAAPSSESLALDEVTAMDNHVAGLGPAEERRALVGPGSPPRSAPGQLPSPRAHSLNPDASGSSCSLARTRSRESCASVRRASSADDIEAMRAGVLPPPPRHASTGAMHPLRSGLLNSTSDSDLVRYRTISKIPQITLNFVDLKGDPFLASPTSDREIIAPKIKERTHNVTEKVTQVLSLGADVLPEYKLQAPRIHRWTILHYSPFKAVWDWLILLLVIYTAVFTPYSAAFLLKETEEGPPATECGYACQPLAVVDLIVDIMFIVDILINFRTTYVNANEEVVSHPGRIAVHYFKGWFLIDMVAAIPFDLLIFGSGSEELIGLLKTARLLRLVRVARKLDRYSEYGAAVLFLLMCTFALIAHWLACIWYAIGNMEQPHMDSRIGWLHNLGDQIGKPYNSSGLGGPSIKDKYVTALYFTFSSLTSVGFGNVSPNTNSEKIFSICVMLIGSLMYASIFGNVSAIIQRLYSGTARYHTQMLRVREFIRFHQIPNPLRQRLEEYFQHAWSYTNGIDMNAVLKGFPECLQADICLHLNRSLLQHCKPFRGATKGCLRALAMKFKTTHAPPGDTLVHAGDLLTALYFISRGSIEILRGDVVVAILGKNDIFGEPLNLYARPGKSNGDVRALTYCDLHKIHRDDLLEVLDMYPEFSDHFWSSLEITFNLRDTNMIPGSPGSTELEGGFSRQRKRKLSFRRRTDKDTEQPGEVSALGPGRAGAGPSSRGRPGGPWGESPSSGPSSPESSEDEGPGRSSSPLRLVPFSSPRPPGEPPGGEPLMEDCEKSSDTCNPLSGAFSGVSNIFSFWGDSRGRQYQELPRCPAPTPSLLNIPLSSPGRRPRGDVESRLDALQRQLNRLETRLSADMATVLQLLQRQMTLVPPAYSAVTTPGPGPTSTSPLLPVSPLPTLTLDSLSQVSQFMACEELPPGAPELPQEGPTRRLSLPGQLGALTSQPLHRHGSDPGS

T1 sequence (Q12809 whole entry): as above

Row | Structure (SMILES) | half-life at 1 µM [2] [h] | Emax [3] [%] | half-life at 1 µM [4] [h] | half-life at 1 µM [5] [h] | DC50 [6] [nM] | half-life at 1 µM [8] [h] | half-life at 1 µM [9] [h] | inhibition at 3 µM (hERG (KCNH2) [1]) [%] | inhibition at 1 µM (hERG (KCNH2) [7]) [%] | inhibition (INH) [10] [%]
1 | Cn1c(=O)n(C2CCC(=O)NC2=O)c2cccc(C#CCO[C@H]3CC[C@](F)(CN4CCC5(CC4)Cc4cc(NC(=O)c6cnn7cccnc67)c(N6CCC(CO)CC6)cc4O5)CC3)c21 (stereo partly drawn) | > 3.07 | 88 | > 3.07 | > 3.07 | – | – | – | 8 | – | –
2 | Cc1cc(-c2nc(C(=O)Nc3cc4c(cc3N3CCC(CO)CC3)OC3(CCN(C[C@H]5CC[C@H](OCC#Cc6cccc7c6n(C)c(=O)n7C6CCC(=O)NC6=O)CC5)CC3)C4)co2)ccn1 (stereo partly drawn) | 1.68 | 85 | > 3.07 | 1.15 | 6.02 | – | – | – | 12 | –
3 | Cn1c(=O)n(C2CCC(=O)NC2=O)c2cccc(C#CCO[C@H]3CC[C@H](CN4CCC5(CC4)Cc4cc(NC(=O)c6cnn7cc(CO)cnc67)c(N6CCC(CO)CC6)cc4O5)CC3)c21 (stereo partly drawn) | 1.3 | 90 | > 3.07 | > 3.07 | 3.32 | > 3.07 | > 3.07 | – | 4 | –
4 | Cn1c(=O)n(C2CCC(=O)NC2=O)c2cccc(C#CCO[C@H]3CC[C@@](F)(CN4CCC5(CC4)Cc4cc(NC(=O)c6cnn7cccnc67)c(N6CCC(CO)CC6)cc4O5)CC3)c21 (stereo partly drawn) | 0.267 | 91 | 0.0167 | 0.117 | 14.8 | – | – | – | 8 | –
5 | Cn1c(=O)n(C2CCC(=O)NC2=O)c2cccc(C#CCO[C@H]3CC[C@@H](CN4CCC5(CC4)Cc4cc(NC(=O)c6coc7cccnc67)c(N6CCC(CO)CC6)cc4O5)CC3)c21 (stereo partly drawn) | 2.05 | 86 | 0.967 | 0.333 | 3.69 | – | – | – | 29 | –
6 | Cn1c(=O)n(C2CCC(=O)NC2=O)c2cccc(C#CCOC3CCN(CC(=O)N4CCC5(CC4)Cc4cc(NC(=O)c6cnn7cccnc67)c(N6CCC(CO)CC6)cc4O5)CC3)c21 (stereo not drawn) | 1.67 | – | 0.2 | 0.15 | 2.18 | – | – | 8 | – | –
7 | Cn1c(=O)n(C2CCC(=O)NC2=O)c2cccc(C#CCOC3CCN(C(=O)CN4CCC5(CC4)Cc4cc(NC(=O)c6cnn7cccnc67)c(N6CCC(CO)CC6)cc4O5)CC3)c21 (stereo not drawn) | 0.35 | – | 0.1 | 0.0667 | 1.92 | – | – | – | – | –
8 | Cn1c(=O)n(C2CCC(=O)NC2=O)c2cccc(C#CCO[C@H]3CC[C@@H](CN4CCC5(CC4)Cc4cc(NC(=O)c6cnn7cccnc67)c(N6CCC(CO)CC6)cc4O5)CC3)c21 (stereo partly drawn) | 1.98 | 89 | 0.0167 | 0.817 | 3.44 | 1.47 | 0.183 | – | 34 | –
9 | Cn1c(=O)n(C2CCC(=O)NC2=O)c2cccc(CCCOCCNCCN3CCC4(CC3)Cc3cc(NC(=O)c5cnn6cccnc56)c(N5CCC(CO)CC5)cc3O4)c21 (stereo not drawn) | – | 68 | – | – | 1.86 | – | – | – | – | 2
10 | Cn1c(=O)n(C2CCC(=O)NC2=O)c2cccc(C#CCO[C@H]3CC[C@H](C(=O)N4CCC5(CC4)Cc4cc(NC(=O)c6cnn7cccnc67)c(N6CCC(CO)CC6)cc4O5)CC3)c21 (stereo partly drawn) | 1.05 | 86 | > 3.07 | 0.65 | 2.78 | – | – | – | 2 | –
11 | Cc1cnc2c(C(=O)Nc3cc4c(cc3N3CCC(CO)CC3)OC3(CCN(C[C@H]5CC[C@H](OCC#Cc6cccc7c6n(C)c(=O)n7C6CCC(=O)NC6=O)CC5)CC3)C4)cnn2c1 (stereo partly drawn) | > 3.07 | 87 | > 3.07 | > 3.07 | 1.52 | – | – | 17 | – | –
12 | Cn1c(=O)n(C2CCC(=O)NC2=O)c2cccc(C#CCO[C@H]3CC[C@@H](CN4CCC5(Cc6cc(NC(=O)c7cnn8cccnc78)c(N7CCC(CO)CC7)cc6O5)C4)CC3)c21 (stereo partly drawn) | 0.55 | 90 | 0.583 | 0.517 | 7.79 | – | – | – | 29 | –
13 | Cn1c(=O)n(C2CCC(=O)NC2=O)c2cccc(C#CCN3CCN(CC(=O)N4CCC5(CC4)Cc4cc(NC(=O)c6cnn7cccnc67)c(N6CCC(CO)CC6)cc4O5)CC3)c21 (stereo not drawn) | 1.4 | – | 1.22 | 0.05 | 2.76 | – | – | 18 | – | –
14 | COCC1CCN(c2cc3c(cc2NC(=O)c2cnn4cccnc24)CC2(CCN(C[C@H]4CC[C@H](OCC#Cc5cccc6c5n(C)c(=O)n6C5CCC(=O)NC5=O)CC4)CC2)O3)CC1 (stereo partly drawn) | – | 62 | – | – | 3.9 | – | – | – | – | –
15 | Cn1c(=O)n(C2CCC(=O)NC2=O)c2cccc(C#CCO[C@H]3CC[C@H](CN4CCC5(CC4)Cc4cc(NC(=O)c6cnn7cc(Cl)cnc67)c(N6CCC(CO)CC6)cc4O5)CC3)c21 (stereo partly drawn) | 1.3 | 87 | > 3.07 | > 3.07 | 2.27 | 2.1 | 1.87 | 2 | – | –
16 | Cn1c(=O)n(C2CCC(=O)NC2=O)c2cccc(C#CCO[C@H]3CC[C@H](CN4CCC5(CC4)Cc4cc(NC(=O)c6cnn7cccnc67)c(OC(F)F)cc4O5)CC3)c21 (stereo partly drawn) | – | 83 | – | – | 13 | – | – | – | – | –

Continued by falling DC50 [6], values first:

Row | half-life at 1 µM [2] [h] | Emax [3] [%] | half-life at 1 µM [4] [h] | half-life at 1 µM [5] [h] | DC50 [6] [nM] | half-life at 1 µM [8] [h] | half-life at 1 µM [9] [h] | Structure (SMILES) | inhibition at 3 µM (hERG (KCNH2) [1]) [%] | inhibition at 1 µM (hERG (KCNH2) [7]) [%] | inhibition (INH) [10] [%]
17 | – | 20 | – | – | 1000 | – | – | Cn1c(=O)n(C2CCC(=O)NC2=O)c2cccc(C#CCO[C@H]3CC[C@H](CN4CCC5(CC4)Oc4cc(N6CCC(CO)CC6)c(NC(=O)c6cnn7cccnc67)cc4C5=O)CC3)c21 (stereo partly drawn) | – | – | –
18 | – | 78 | – | – | 10.4 | – | – | Cn1c(=O)n(C2CCC(=O)NC2=O)c2cccc(C#CCO[C@H]3CC[C@H](CN4CCC5(CC4)Oc4cc(NC(=O)c6cnn7cccnc67)c(N6CCC(CO)CC6)cc4O5)CC3)c21 (stereo partly drawn) | – | – | –
19 | – | 49 | – | – | 9.37 | – | – | Cn1c(=O)n(C2CCC(=O)NC2=O)c2cccc(C#CCO[C@H]3CC[C@H](CN4CCC5(CC4)Cc4cc(NC(=O)c6cnn7cccnc67)c(OCCC(C)(C)O)cc4O5)CC3)c21 (stereo partly drawn) | – | – | –
20 | – | 46 | – | – | 8.48 | – | – | Cn1c(=O)n(C2CCC(=O)NC2=O)c2cccc(C#CCO[C@H]3CC[C@H](CN4CCC5(CCc6cc(NC(=O)c7cnn8cccnc78)c(N7CCC(CO)CC7)cc6O5)CC4)CC3)c21 (stereo partly drawn) | – | – | –
21 | – | 68 | – | – | 6.92 | – | – | CN(CCCO)c1cc2c(cc1NC(=O)c1cnn3cccnc13)CC1(CCN(C[C@H]3CC[C@H](OCC#Cc4cccc5c4n(C)c(=O)n5C4CCC(=O)NC4=O)CC3)CC1)O2 (stereo partly drawn) | – | – | –
22 | – | 44 | – | – | 6.44 | – | – | CN(CCO)c1cc2c(cc1NC(=O)c1cnn3cccnc13)CC1(CCN(C[C@H]3CC[C@H](OCC#Cc4cccc5c4n(C)c(=O)n5C4CCC(=O)NC4=O)CC3)CC1)O2 (stereo partly drawn) | – | – | –
23 | – | 85 | – | – | 6.38 | – | – | Cn1c(=O)n(C2CCC(=O)NC2=O)c2cccc(C#CCO[C@H]3CC[C@H](CN4CCC5(CC4)Cc4cc(NC(=O)c6cnn7cccnc67)c(N6CCC(F)CC6)cc4O5)CC3)c21 (stereo partly drawn) | – | – | –
24 | 1.98 | 89 | > 3.07 | > 3.07 | 2.81 | 2.45 | 1.07 | Cn1c(=O)n(C2CCC(=O)NC2=O)c2cccc(C#CCO[C@H]3CC[C@H](CN4CCC5(CC4)Cc4cc(NC(=O)c6cnn7cc(C#N)cnc67)c(N6CCC(CO)CC6)cc4O5)CC3)c21 (stereo partly drawn) | 29 | – | –
25 | – | 78 | – | – | 2.77 | – | – | Cn1c(=O)n(C2CCC(=O)NC2=O)c2cccc(C#CCO[C@H]3CC[C@H](CN4CCC5(CC4)Cc4cc(NC(=O)c6cnn7cccnc67)c(N6CCC(CO)CC6)cc4C5)CC3)c21 (stereo partly drawn) | 46 | – | –
26 | > 3.07 | 88 | 1.47 | 0.383 | 2.18 | 1.47 | 0.0333 | Cn1c(=O)n(C2CCC(=O)NC2=O)c2cccc(C#CCOC3CCN(CCN4CCC5(CC4)Cc4cc(NC(=O)c6cnn7cccnc67)c(N6CCC(CO)CC6)cc4O5)CC3)c21 (stereo not drawn) | – | – | –
27 | > 3.07 | 84 | > 3.07 | 1.67 | 2 | – | – | Cn1c(=O)n(C2CCC(=O)NC2=O)c2cccc(C#CCO[C@H]3CC[C@H](CN4CCC5(Cc6cc(NC(=O)c7cnn8cccnc78)c(N7CCC(CO)CC7)cc6O5)C4)CC3)c21 (stereo partly drawn) | – | 1 | –
28 | – | 95 | – | – | 1.66 | – | – | Cn1c(=O)n(C2CCC(=O)NC2=O)c2cccc(CN3CC4(CCN(CCN5CCC6(CC5)Cc5cc(NC(=O)c7cnn8cccnc78)c(N7CCC(CO)CC7)cc5O6)CC4)C3)c21 (stereo not drawn) | – | – | 6
29 | 0.65 | 95 | > 3.07 | 0.833 | 1.53 | 0.7 | 1.17 | Cn1c(=O)n(C2CCC(=O)NC2=O)c2cccc(CN3CCC4(CC3)CN(CCN3CCC5(CC3)Cc3cc(NC(=O)c6cnn7cccnc67)c(N6CCC(CO)CC6)cc3O5)C4)c21 (stereo not drawn) | – | – | 34
30 | – | 89 | – | – | 1.17 | – | – | Cn1c(=O)n(C2CCC(=O)NC2=O)c2cccc(C#CCOCCNCCN3CCC4(CC3)Cc3cc(NC(=O)c5cnn6cccnc56)c(N5CCC(CO)CC5)cc3O4)c21 (stereo not drawn) | – | – | 8

Reference: ChEMBL document CHEMBL6182949 (J Med Chem, 2025)
